Read-outs that look alike come from different tables or passages of the source.

The text below walks through data of patent US20110245283A1, “Methods for predicting the response to statins” (priority 2009, published 2011).

One series deals with LDL. The experiment in a line: Logistic regression models of attaining LDL goal: odds ratios for concurrent or prior drug doses. The format is in vivo, patients. The conditions noted are these: for OR: per dose increment. How it is done:
G. Covariates for the multivariate model—The following list includes the predictors one or more of which may be tested in the multivariate models. • 1. AGE: (expressed in units of 10 years) at time that the new statin prescription was released • 2. GENDER, E. G., MALE: 1=yes, 0=no • 3. BMI (kg/M^2): last value before release date • 4. HBA1C (hemoglobin Alc): last value before release date • 5. PLDL: preceding LDL level expressed in e.g. 10 mg/dl units • 6. Statins • a. PLOVA: prior daily dose of lovastatin expressed in e.g. 10 mg units • b. […] For additional drugs: • a. AMIODOSE: amiodarone dose in mg/day • b. CARBDOSE: carbemazepine dose in mg/day • c. PIOGDOSE: pioglitazone dose expressed as number of 15 mg doses per day • d. […] METFDOSE: metformin dose expressed as number of 1000 mg doses per day • f. PHENDOSE: phenyloin dose in mg/day • g. RISPDOSE: risperidone dose in mg/day • h. ROSIDOSE: rosiglitazone dose in mg/day • i.
Body mass index (BMI) was chosen as a covariate of statin response because obese patients tend to consume a diet high in cholesterol. It was hypothesized that they would respond less well to statins because their hypercholesterolemia was more likely to be mediated by dietary indiscretion than excessive LDL synthesis. […] Metformin and the thiazolidinediones were chosen because they reduce LDL levels in diabetic patients through mechanisms that may or may not be affected by concurrent statin treatment. The remaining non-statin drugs were chosen because they are commonly used drugs that potentiate the effect of statins. They were selected by reviewing the official on-line VA pharmaceutical reference (Micromedex®) for major interactions mediated by impaired statin metabolism. […] The daily dose of the non-statin drug was calculated by the method described in Section B.
H. Assembling the predictor file—The patient identifier was used to link the new statin prescription type and dose, the preceding LDL above goal, and the type and dose of the previous statin (if any) with the patient's most recent HbA1c, most recent BMI, and the daily doses of 9 drugs with major statin interactions that were active at the time the new prescription was released.
The dependent variable was attainment of goal (LDL <100 mg/dl). […] Step selections were based upon the maximal likelihood method with α<0.15 to enter and ≧0.15 to remove.

For series [1] the following is noted: cited from earlier work.
[2] abbreviates: odds of goal LDL <100 mg/dl, Lovastatin 20 mg [A] model (includes HbA1c; n = 595).
Where [3] appears, read: odds of goal, Lovastatin 20 mg [B] model (excludes HbA1c; n = 733).
[4] abbreviates: odds of goal, Lovastatin 40 mg model (n = 764).
[5] abbreviates: odds of goal, Simvastatin 10 mg [A] model (no previous treatment; n = 172).
Where [6] appears, read: odds of goal, Simvastatin 10 mg [C] model (excludes BMI; n = 219).
[7] abbreviates: odds of goal, Simvastatin 40 mg model (n = 698).

With `COc1ccc([C@@H]2Sc3ccccc3N(CCN(C)C)C(=O)[C@@H]2OC(C)=O)cc1` [Diltiazem, diltiazem], in the series on LDL (for every 120 mg per day diltiazem, lovastatin 20 mg model), the “Increase of odds of reaching goal” value is 70%. In addition, the OR in the series with LDL (setting [2]) is on record as 1.44; with LDL (setting [3]), 1.69; in the series with LDL (setting [4]), 1.35; in the series with LDL (setting [5]) it was 1.78; with LDL (setting [6]), 1.76; in the series on LDL (setting [7]), 1.70.
In the case of `CCc1ccc(CCOc2ccc(CC3SC(=O)NC3=O)cc2)nc1` (stereo not shown) [Pioglitazone, pioglitazone], the OR in the series with LDL (setting [3]) is reported as 2.06.
Turning to `CC(C)(Oc1ccc(C2CC2(Cl)Cl)cc1)C(=O)O` (stereo not shown) [Ciprofibrate], the “Increased risk of toxicity or reduced statin effectiveness” value in series [1] (with Atorva), in series [1] (with Fluva), in series [1] (with Lova), in series [1] (with Prava) and in series [1] (with Simva) was “(+)” in each case. Further, the “Severity of the interaction” value in series [1] (with Atorva), in series [1] (with Fluva), in series [1] (with Lova), in series [1] (with Prava) and in series [1] (with Simva) was 3 in each case.
In the case of `Cc1c(C)c2c(c(C)c1O)CCC(C)(COc1ccc(CC3SC(=O)NC3=O)cc1)O2` (stereo not shown) [Troglitazone], the “Severity of the interaction” value in series [1] (with Simva) is recorded as 1.
For the compound `COC(=O)[C@H](c1ccccc1Cl)N1CCc2sccc2C1` [Clopidogrel], in series [1] (with Fluva), the “Increased risk of toxicity or reduced statin effectiveness” value is “(+)” and the “Severity of the interaction” value is reported as 2.
As for `COC(=O)N[C@H](C(=O)N[C@@H](Cc1ccccc1)[C@@H](O)CN(Cc1ccc(-c2ccccn2)cc1)NC(=O)[C@@H](NC(=O)OC)C(C)(C)C)C(C)(C)C` [Atazanavir], the “Increased risk of toxicity or reduced statin effectiveness” value in series [1] (with Atorva), in series [1] (with Lova) and in series [1] (with Simva) was “(+)” each time. Besides, the “Severity of the interaction” value in series [1] (with Atorva), in series [1] (with Lova) and in series [1] (with Simva) was 3 throughout.
Take `C#C[C@]1(O)CC[C@H]2[C@@H]3CCC4=Cc5oncc5C[C@]4(C)[C@H]3CC[C@@]21C` [Danazol]: the “Increased risk of toxicity or reduced statin effectiveness” value in series [1] (with Simva) is given as “(+)”.
Regarding `CCCCc1oc2ccccc2c1C(=O)c1cc(I)c(OCCN(CC)CC)c(I)c1` [Amiodarone], the “Severity of the interaction” value in series [1] (with Lova) and in series [1] (with Simva) was 3 throughout.
For the compound `Cc1c(O)cccc1C(=O)N[C@@H](CSc1ccccc1)[C@H](O)CN1C[C@H]2CCCC[C@H]2C[C@H]1C(=O)NC(C)(C)C` [Nelfinavir], the “Increased risk of toxicity or reduced statin effectiveness” value in series [1] (with Atorva), in series [1] (with Lova) and in series [1] (with Simva) was “(+)” throughout. The “Severity of the interaction” value in series [1] (with Atorva), in series [1] (with Lova) and in series [1] (with Simva) was 3 in each case.
Turning to `CC(C)CN(C[C@@H](O)[C@H](Cc1ccccc1)NC(=O)O[C@H]1CCOC1)S(=O)(=O)c1ccc(N)cc1` [Amprenavir], the “Increased risk of toxicity or reduced statin effectiveness” value in series [1] (with Atorva), in series [1] (with Lova), in series [1] (with Prava) and in series [1] (with Simva) was “(+)” throughout. In addition, the “Severity of the interaction” value is 2 in series [1] (with Atorva), 3 in series [1] (with Lova), 2 in series [1] (with Prava) and 3 in series [1] (with Simva).
As to `OC(Cn1cncn1)(Cn1cncn1)c1ccc(F)cc1F` [Fluconazole], the “Increased risk of toxicity or reduced statin effectiveness” value in series [1] (with Atorva), in series [1] (with Fluva), in series [1] (with Lova), in series [1] (with Rosuva) and in series [1] (with Simva) was “(+)” in each case.
`Cc1nc2n(c(=O)c1CCN1CCC(c3noc4cc(F)ccc34)CC1)CCCC2` [Risperidone]: in series [1] (with Simva), the “Increased risk of toxicity or reduced statin effectiveness” value is “(+)” and the “Severity of the interaction” value is 3.
Turning to `CO[C@H]1/C=C/O[C@@]2(C)Oc3c(C)c(O)c4c(O)c(c(/C=N/N5CCN(C)CC5)c(O)c4c3C2=O)NC(=O)/C(C)=C\C=C\[C@H](C)[C@H](O)[C@@H](C)[C@@H](O)[C@@H](C)[C@H](OC(C)=O)[C@@H]1C` [Rifampin], the “Severity of the interaction” value in series [1] (with Fluva) is given as 1; in series [1] (with Simva), 2.
Turning to `CCC(C)n1ncn(-c2ccc(N3CCN(c4ccc(OCC5COC(Cn6cncn6)(c6ccc(Cl)cc6Cl)O5)cc4)CC3)cc2)c1=O` (stereo not shown) [Itraconazole], the “Increased risk of toxicity or reduced statin effectiveness” value in series [1] (with Atorva), in series [1] (with Lova), in series [1] (with Rosuva) and in series [1] (with Simva) was “(+)” each time. Moreover, the “Severity of the interaction” value in series [1] (with Atorva) is reported as 3; in series [1] (with Lova), 4; in series [1] (with Rosuva), 2; in series [1] (with Simva), 4.
In the case of `CC(C)c1nc(CN(C)C(=O)N[C@H](C(=O)N[C@@H](Cc2ccccc2)C[C@H](O)[C@H](Cc2ccccc2)NC(=O)OCc2cncs2)C(C)C)cs1` [Rotinavir], the “Increased risk of toxicity or reduced statin effectiveness” value in series [1] (with Atorva), in series [1] (with Lova) and in series [1] (with Simva) was “(+)” throughout. Besides, the entries for the “Severity of the interaction” value in series [1] (with Atorva), in series [1] (with Lova) and in series [1] (with Simva) were 2, 3 and 3, respectively.
On to `CN(C)C(=N)N=C(N)N` [Metformin, metformin], for which, in the series on LDL (for every 1,000 mg daily, 2 models), the “Odds ratio for concurrent treatment” value came to 1.3. The OR in the series on LDL (setting [2]) came to 1.30; in the series with LDL (setting [3]), 1.26; in the series with LDL (setting [4]) it was 1.22; in the series with LDL (setting [5]) it was 1.84; in the series with LDL (setting [6]), 1.98; with LDL (setting [7]), 1.31. The “Increase of odds of reaching goal” value in the series on LDL (patient taking metformin, simvastatin 40 mg model) is 30%.
Consider Colestipol, for which the “Severity of the interaction” value in series [1] (with Prava) is on record as 2.
